Results reported in the supplement of paper PMC11061612.

How the values were obtained:
Test in all cases: combination Emax (second highest fraction inhibited in the dose matrix, 72 h); higher = more inhibition; extreme values may be limits of the assay
NB10 (Neuroblastoma) = system: NB10 (Neuroblastoma)
Procedure, shortened: (§1)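 Cell lines grown in DMEM/F12 or RPMI with 10% FBS were plated in 1536-well plates and held 24 hours at 37°C, 5% CO2 before 72 hours of exposure to two-drug dose matrices, with DMSO typically at 0.2%. CellTiter-Glo 2.0 luminescence gave viability, which was converted to inhibition. Vehicle wells were set to 0 and blank wells to 1. Combination Emax is the second-highest inhibition in the matrix, and Bliss excess is the observed combination effect minus the expected EA + EB − EA·EB, where EA and EB are the single-agent effects.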

[1] = system: RO82-W-1 (Thyroid Gland Carcinoma)
Procedure, shortened: as §1

[2] = system: ME-1 (Acute Myeloid Leukemia)
Procedure, shortened: as §1

[3] = system: TCCSUP (Bladder Carcinoma)
Procedure, shortened: as §1

[4] = system: HO-1-N-1 (Oral Cavity Carcinoma)
Procedure, shortened: as §1

ES4 (Ewing's Sarcoma) = system: ES4 (Ewing's Sarcoma)
Procedure, shortened: as §1

HOS (Osteosarcoma) = system: HOS (Osteosarcoma)
Procedure, shortened: as §1

[5] = system: HCC-78 (Lung Adenocarcinoma)
Procedure, shortened: as §1

[6] = system: SK-ES-1 (Ewing's Sarcoma)
Procedure, shortened: as §1

[7] = system: Daoy (Other Solid Carcinomas)
Procedure, shortened: as §1

[8] = system: HT-1376 (Bladder Carcinoma)
Procedure, shortened: as §1

[9] = system: Hs-578-T (Breast Carcinoma)
Procedure, shortened: as §1

42-MG-BA (Glioblastoma) = system: 42-MG-BA (Glioblastoma)
Procedure, shortened: as §1

T98G (Glioblastoma) = system: T98G (Glioblastoma)
Procedure, shortened: as §1

[10] = system: NCI-H2085 (Non-Small Cell Lung Carcinoma)
Procedure, shortened: as §1

[11] = system: Ramos-2G6-4C10 (Burkitt's Lymphoma)
Procedure, shortened: as §1

[12] = system: UM-UC-3 (Bladder Carcinoma)
Procedure, shortened: as §1

[13] = system: CCRF-CEM (T-Lymphoblastic Leukemia)
Procedure, shortened: as §1

[14] = system: DEL (T-Cell Non-Hodgkin's Lymphoma)
Procedure, shortened: as §1

[15] = system: KURAMOCHI (Ovarian Carcinoma)
Procedure, shortened: as §1

CN(CCO)CC[C@H](CSc1ccccc1)Nc1ccc(S(=O)(=O)NC(=O)c2ccc(N3CCC([C@@H](O)c4ccccc4-c4ccc(Cl)cc4)CC3)cc2)cc1S(=O)(=O)C(F)(F)F [AZD4320] + C1CN(CCC1(C(=O)N[C@@H](CCO)C2=CC=C(C=C2)Cl)N)C3=NC=NC4=C3C=CN4 [Capivasertib] (first compound max 1 µM, 7x7, partner max 3 µM)
combination Emax (NB10 (Neuroblastoma)): 0.108
combination Emax [1]: 0.311
combination Emax [2]: 1
combination Emax [3]: 0.168
combination Emax [4]: 0.216
combination Emax (ES4 (Ewing's Sarcoma)): 0.564
combination Emax (HOS (Osteosarcoma)): 0.229
combination Emax [5]: 0.31
combination Emax [6]: 0.94
combination Emax [7]: 0.249
combination Emax [8]: 0.74
combination Emax [9]: 0.639
combination Emax (42-MG-BA (Glioblastoma)): 0.594
combination Emax (T98G (Glioblastoma)): 0.249
combination Emax [10]: 0.289
combination Emax [11]: 0.586
combination Emax [12]: 0.196
combination Emax [13]: 1
combination Emax [14]: 0.192
combination Emax [15]: 0.351

CN(CCO)CC[C@H](CSc1ccccc1)Nc1ccc(S(=O)(=O)NC(=O)c2ccc(N3CCC([C@@H](O)c4ccccc4-c4ccc(Cl)cc4)CC3)cc2)cc1S(=O)(=O)C(F)(F)F [AZD4320] + C=CCn1c(=O)c2cnc(Nc3ccc(N4CCN(C)CC4)cc3)nc2n1-c1cccc(C(C)(C)O)n1 [AZD1775] (first compound max 1 µM, partner max 1 µM)
combination Emax (NB10 (Neuroblastoma)): 0.493
combination Emax [1]: 0.618
combination Emax [2]: 1
combination Emax [3]: 0.689
combination Emax [4]: 0.549
combination Emax (ES4 (Ewing's Sarcoma)): 1
combination Emax (HOS (Osteosarcoma)): 0.379
combination Emax [5]: 0.232
combination Emax [6]: 1
combination Emax [7]: 0.99
combination Emax [8]: 0.718
combination Emax [9]: 0.928
combination Emax (42-MG-BA (Glioblastoma)): 0.293
combination Emax (T98G (Glioblastoma)): 0.892
combination Emax [10]: 0.585
combination Emax [11]: 1
combination Emax [12]: 0.276
combination Emax [13]: 1
combination Emax [14]: 1
combination Emax [15]: 0.807

CN(CCO)CC[C@H](CSc1ccccc1)Nc1ccc(S(=O)(=O)NC(=O)c2ccc(N3CCC([C@@H](O)c4ccccc4-c4ccc(Cl)cc4)CC3)cc2)cc1S(=O)(=O)C(F)(F)F [AZD4320] + CCN(CCO)CCCOc1ccc2c(Nc3cc(CC(=O)Nc4cccc(F)c4)[nH]n3)ncnc2c1 [AZD2811] (first compound max 1 µM, 7x7, partner max 1 µM)
combination Emax (NB10 (Neuroblastoma)): 0.408
combination Emax [1]: 0.46
combination Emax [2]: 1
combination Emax [3]: 0.543
combination Emax [4]: 0.886
combination Emax (ES4 (Ewing's Sarcoma)): 0.631
combination Emax (HOS (Osteosarcoma)): 0.12
combination Emax [5]: 0.2
combination Emax [6]: 1
combination Emax [7]: 0.715
combination Emax [8]: 0.784
combination Emax [9]: 0.918
combination Emax (42-MG-BA (Glioblastoma)): 0.831
combination Emax (T98G (Glioblastoma)): 0.554
combination Emax [10]: 0.692
combination Emax [11]: 0.909
combination Emax [12]: 0.226
combination Emax [13]: 1
combination Emax [14]: 0.804
combination Emax [15]: 0.327

CN(CCO)CC[C@H](CSc1ccccc1)Nc1ccc(S(=O)(=O)NC(=O)c2ccc(N3CCC([C@@H](O)c4ccccc4-c4ccc(Cl)cc4)CC3)cc2)cc1S(=O)(=O)C(F)(F)F [AZD4320] + CN(C)CCCOc1ccc(-c2ccc3ncc4c(c3c2)n(C2CCOCC2)c(=O)n4C)cn1 [AZD0156] (first compound max 1 µM, 7x7, partner max 1 µM)
combination Emax (NB10 (Neuroblastoma)): 0.215
combination Emax [1]: 0.469
combination Emax [2]: 1
combination Emax [3]: 0.127
combination Emax [4]: 0.156
combination Emax (ES4 (Ewing's Sarcoma)): 0.655
combination Emax (HOS (Osteosarcoma)): 0.0916
combination Emax [5]: 0.147
combination Emax [6]: 0.899
combination Emax [7]: 0.156
combination Emax [8]: 0.484
combination Emax [9]: 0.531
combination Emax (42-MG-BA (Glioblastoma)): 0.274
combination Emax (T98G (Glioblastoma)): 0.126
combination Emax [10]: 0.242
combination Emax [11]: 0.345
combination Emax [12]: 0.201
combination Emax [13]: 1
combination Emax [14]: 0.357
combination Emax [15]: 0.189

CN(CCO)CC[C@H](CSc1ccccc1)Nc1ccc(S(=O)(=O)NC(=O)c2ccc(N3CCC([C@@H](O)c4ccccc4-c4ccc(Cl)cc4)CC3)cc2)cc1S(=O)(=O)C(F)(F)F [AZD4320] + C[C@@H]1COCCN1C2=NC(=NC(=C2)C3(CC3)[S@](=N)(=O)C)C4=C5C=CNC5=NC=C4 [AZD6738] (first compound max 1 µM, 7x7, partner max 10 µM)
combination Emax (NB10 (Neuroblastoma)): 0.689
combination Emax [1]: 0.785
combination Emax [2]: 1
combination Emax [3]: 0.865
combination Emax [4]: 0.937
combination Emax (ES4 (Ewing's Sarcoma)): 1
combination Emax (HOS (Osteosarcoma)): 0.722
combination Emax [5]: 0.637
combination Emax [6]: 1
combination Emax [7]: 0.972
combination Emax [8]: 0.718
combination Emax [9]: 0.991
combination Emax (42-MG-BA (Glioblastoma)): 0.675
combination Emax (T98G (Glioblastoma)): 0.954
combination Emax [10]: 0.502
combination Emax [11]: 0.946
combination Emax [12]: 0.7
combination Emax [13]: 1
combination Emax [14]: 1
combination Emax [15]: 0.687
